Our source for the IC50 values is paper PMC7398468 (Gut, 2020).

This assay addresses SUMO-activating enzyme (SAE), subunit 2 (UBA2/SAE2) (Homo sapiens, UniProt Q9UBT2). As to the kind of experiment: ATP-inorganic pyrophosphate exchange assay with SUMO2. The class given is biochemical.

By IC50 is commonly meant the concentration that gives 50% inhibition. A high value points to a need for much substance.

Chain of SUMO-activating enzyme (SAE), subunit 2 (UBA2/SAE2) (Q9UBT2 whole entry): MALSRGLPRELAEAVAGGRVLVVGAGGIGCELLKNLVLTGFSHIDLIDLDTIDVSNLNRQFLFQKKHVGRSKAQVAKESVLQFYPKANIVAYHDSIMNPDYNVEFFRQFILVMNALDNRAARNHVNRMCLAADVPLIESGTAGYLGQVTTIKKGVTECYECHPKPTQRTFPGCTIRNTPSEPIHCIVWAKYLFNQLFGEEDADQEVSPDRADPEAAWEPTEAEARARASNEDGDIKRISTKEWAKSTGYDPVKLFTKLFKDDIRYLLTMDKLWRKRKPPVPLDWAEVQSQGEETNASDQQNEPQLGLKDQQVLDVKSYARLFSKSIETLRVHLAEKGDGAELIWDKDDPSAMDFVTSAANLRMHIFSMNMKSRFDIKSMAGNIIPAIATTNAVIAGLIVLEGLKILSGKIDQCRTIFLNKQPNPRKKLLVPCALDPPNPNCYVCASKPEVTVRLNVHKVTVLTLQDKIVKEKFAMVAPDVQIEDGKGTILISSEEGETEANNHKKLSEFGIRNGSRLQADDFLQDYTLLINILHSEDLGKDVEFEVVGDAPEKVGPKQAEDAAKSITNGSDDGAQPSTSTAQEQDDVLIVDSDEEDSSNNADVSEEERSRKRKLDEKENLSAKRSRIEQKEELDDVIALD
Chain of SUMO-activating enzyme (SAE), subunit 2 (UBA2/SAE2) (Q9UBE0 whole entry, further chain): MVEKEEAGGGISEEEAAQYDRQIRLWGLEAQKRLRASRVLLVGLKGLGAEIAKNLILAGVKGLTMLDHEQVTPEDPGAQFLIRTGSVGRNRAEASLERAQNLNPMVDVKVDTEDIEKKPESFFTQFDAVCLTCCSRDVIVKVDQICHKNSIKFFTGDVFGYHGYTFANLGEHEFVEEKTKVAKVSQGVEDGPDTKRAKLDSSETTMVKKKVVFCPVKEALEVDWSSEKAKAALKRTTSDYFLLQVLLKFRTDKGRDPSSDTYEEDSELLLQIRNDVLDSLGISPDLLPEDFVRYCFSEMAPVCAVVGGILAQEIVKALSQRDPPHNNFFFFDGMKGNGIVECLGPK

In the case of ML-93, half-maximal inhibition (IC50) required 37 nM.
